Measurements taken from ChEMBL document CHEMBL4334430, “A cell-based screening system for RNA polymerase I inhibitors” (Medchemcomm, 2019).
Calls of active or inactive are those of the source. No cut-off for these calls is given here.

Experiments:
A2780 = test: Antiproliferative activity against human A2780 cells incubated for 4 days by MTT assay; type: functional, cell-based; conditions: A2780, 96 h
Saccharomyces cerevisiae [1] = test: Inhibition of yeast RNA polymerase 1 in YBR140C cells expressing human RNA polymerase 1 promoter and rRNA assessed as reduction in human rDNA transcription at 390 to 3120 nM by qRT-PCR analysis; type: cell-based
NCI-H460 = test: Antiproliferative activity against human H460 cells incubated for 4 days by MTT assay; type: functional, cell-based; conditions: NCI-H460, 96 h
Saccharomyces cerevisiae [2] = test: Inhibition of yeast RNA polymerase 1 in YBR140C cells expressing human RNA polymerase 1 promoter and rRNA assessed as reduction in cell growth at 390 to 1560 nM by UV-spectrophotometric analysis; type: cell-based
Saccharomyces cerevisiae [3] = test: Inhibition of yeast RNA polymerase 1 in YBR140C cells expressing human RNA polymerase 1 promoter and rRNA assessed as reduction in cell growth at 126 to 2500 nM by UV-spectrophotometric analysis; type: cell-based
Saccharomyces cerevisiae [4] = test: Inhibition of yeast RNA polymerase 1 in YBR140C cells expressing human RNA polymerase 1 promoter and rRNA assessed as reduction in human rDNA transcription at 312 to 2500 nM by qRT-PCR analysis; type: cell-based

Structure (SMILES): COCc1c(C(C)C)nc(C(C)C)c(/C=C/[C@@H](O)C[C@@H](O)CC(=O)O)c1-c1ccc(F)cc1 [CERIVASTATIN SODIUM]
- IC50 (A2780): 700 nM
- inhibition (Saccharomyces cerevisiae [1]): Active
- IC50 (NCI-H460): 3500 nM
- inhibition (Saccharomyces cerevisiae [2]): Active

Structure (SMILES): Cc1cnc(CNC(=O)c2c(=O)c3ccc(N4CCCN(C)CC4)nc3n3c2sc2ccccc23)cn1 [CX-5461]
- IC50 (A2780): 120 nM
- inhibition (Saccharomyces cerevisiae [3]): Active
- inhibition (Saccharomyces cerevisiae [4]): Active
